Results as given in ChEMBL document CHEMBL1127091, “Design of 5-(3,5-di-tert-butyl-4-hydroxyphenyl)-1,3,4-thiadiazoles, -1,3,4-oxadiazoles, and -1,2,4-triazoles as orally-active, nonulcerogenic antiinflammatory agents” (J Med Chem, 1993).

Legend:
[1] = Partition coefficient (logP); type: physicochemical; conditions: octanol/water
Cyclooxygenase = biological target: T1, Cyclooxygenase (Rattus norvegicus, UniProt P35355+Q63921)
T1 sequence (P35355 whole entry): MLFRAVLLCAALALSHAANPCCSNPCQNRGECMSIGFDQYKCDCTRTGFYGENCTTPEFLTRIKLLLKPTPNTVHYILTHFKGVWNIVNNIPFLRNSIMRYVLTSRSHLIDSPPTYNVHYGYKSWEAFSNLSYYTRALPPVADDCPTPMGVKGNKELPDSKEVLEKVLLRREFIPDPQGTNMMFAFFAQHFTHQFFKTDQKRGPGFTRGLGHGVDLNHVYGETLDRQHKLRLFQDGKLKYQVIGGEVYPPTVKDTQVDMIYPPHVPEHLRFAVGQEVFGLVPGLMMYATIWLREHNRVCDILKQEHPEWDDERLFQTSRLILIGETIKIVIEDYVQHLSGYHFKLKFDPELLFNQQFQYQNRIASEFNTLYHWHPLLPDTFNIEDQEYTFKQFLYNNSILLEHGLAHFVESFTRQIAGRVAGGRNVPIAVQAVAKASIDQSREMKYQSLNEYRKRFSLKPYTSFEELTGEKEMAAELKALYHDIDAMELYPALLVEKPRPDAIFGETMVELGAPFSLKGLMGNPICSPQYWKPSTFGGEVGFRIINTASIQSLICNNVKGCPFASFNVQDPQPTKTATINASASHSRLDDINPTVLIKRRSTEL
T1 sequence (Q63921 whole entry): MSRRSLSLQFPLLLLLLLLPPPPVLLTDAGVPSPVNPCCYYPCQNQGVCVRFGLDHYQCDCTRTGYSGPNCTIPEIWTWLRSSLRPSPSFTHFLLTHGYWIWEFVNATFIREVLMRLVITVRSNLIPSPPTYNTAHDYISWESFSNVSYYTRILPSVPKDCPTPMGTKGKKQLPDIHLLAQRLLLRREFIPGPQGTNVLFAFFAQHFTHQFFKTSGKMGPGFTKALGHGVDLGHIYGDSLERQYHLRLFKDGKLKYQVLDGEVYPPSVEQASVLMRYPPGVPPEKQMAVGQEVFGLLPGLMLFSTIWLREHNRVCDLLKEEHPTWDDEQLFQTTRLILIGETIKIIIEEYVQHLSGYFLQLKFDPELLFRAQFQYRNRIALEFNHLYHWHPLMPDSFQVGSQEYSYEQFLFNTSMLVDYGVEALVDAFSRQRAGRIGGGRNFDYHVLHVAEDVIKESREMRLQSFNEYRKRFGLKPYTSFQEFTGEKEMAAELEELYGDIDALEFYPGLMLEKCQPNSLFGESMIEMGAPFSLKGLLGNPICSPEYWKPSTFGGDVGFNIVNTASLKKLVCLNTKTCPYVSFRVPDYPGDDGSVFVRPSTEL
Description: Inhibition of prostaglandin G/H synthase by measuring the reduction of prostaglandin F2-alpha in intact basophilic rat leukemia cells

[2] = biological target: T2, Polyunsaturated fatty acid 5-lipoxygenase (Rattus norvegicus, UniProt P12527)
T2 sequence (P12527 whole entry): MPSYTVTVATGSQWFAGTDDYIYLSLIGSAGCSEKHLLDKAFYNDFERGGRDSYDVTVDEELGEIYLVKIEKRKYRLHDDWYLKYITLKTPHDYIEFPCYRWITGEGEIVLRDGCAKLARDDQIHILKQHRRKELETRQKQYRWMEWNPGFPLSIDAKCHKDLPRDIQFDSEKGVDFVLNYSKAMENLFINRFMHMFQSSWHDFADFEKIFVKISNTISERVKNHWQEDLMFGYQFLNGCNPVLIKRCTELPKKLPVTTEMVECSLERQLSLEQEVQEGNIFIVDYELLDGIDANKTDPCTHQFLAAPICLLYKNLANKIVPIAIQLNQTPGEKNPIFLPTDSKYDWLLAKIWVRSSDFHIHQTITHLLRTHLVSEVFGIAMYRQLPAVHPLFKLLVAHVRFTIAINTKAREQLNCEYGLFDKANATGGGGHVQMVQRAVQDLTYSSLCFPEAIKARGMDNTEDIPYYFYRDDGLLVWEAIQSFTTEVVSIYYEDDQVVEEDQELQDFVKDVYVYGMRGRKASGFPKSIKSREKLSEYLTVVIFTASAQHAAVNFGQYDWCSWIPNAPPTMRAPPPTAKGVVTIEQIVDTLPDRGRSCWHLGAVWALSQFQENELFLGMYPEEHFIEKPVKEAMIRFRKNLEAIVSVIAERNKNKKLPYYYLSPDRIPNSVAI
Description: Inhibition of 5-lipoxygenase measured by the reduction of leukotriene B4 (LTB4) in intact basophilic rat leukemia cells

Rattus norvegicus [3] = experiment: In vivo inflammatory activity measured on Carrageenan foot-pad edema (CFE) in rats, peroral administration; type: functional
Rattus norvegicus [4] = experiment: In vivo inflammatory activity measured on Gastric ulcerogenicity, expressed as percent rats with ulcers at 200 mg/kg, po (n= 10 rats per experimental group); type: functional, Stomach
Rattus norvegicus [5] = experiment: In vivo inflammatory activity measured on Mycobacterium foot-pad edema (MFE) model, peroral administration; type: functional
[6] = biological target: T2, Polyunsaturated fatty acid 5-lipoxygenase; remark: listed apart in the source
Description: Tested for inhibition of 5-LO by measuring the reduction of leukotriene B4 (LTB4) in intact basophilic rat leukemia cells

Rattus norvegicus [7] = experiment: In vivo inflammatory activity measured on Gastric ulcerogenicity (n= 10 rats per experimental group); type: functional, Stomach
Rattus norvegicus [8] = experiment: In vivo inflammatory activity measured on Mycobacterium foot-pad edema (MFE) model; type: functional
Rattus norvegicus [9] = experiment: In vivo inflammatory activity measured on Gastric ulcerogenicity, expressed as percent rats with ulcers at 10 mg/kg, po (n= 10 rats per experimental group); type: functional, Stomach
Rattus norvegicus [10] = experiment: In vivo inflammatory activity measured on Gastric ulcerogenicity, (n= 10 rats per experimental group); type: functional, Stomach

`CC(C)(C)c1cc(-c2n[nH]c(N)n2)cc(C(C)(C)C)c1O` gave a logP [1] of 3.1, an IC50 (Cyclooxygenase) of over 30 µM and an IC50 [2] of 5.1 µM.

For `CC(C)(C)c1cc(-c2nnc(N)o2)cc(C(C)(C)C)c1O`, the logP [1] was 3.7, the ID40 (Rattus norvegicus [3]) was 8.2 mg/kg and the IC50 (Cyclooxygenase) was 2.4 µM. It also gave an IC50 [2] of 0.7 µM.

Molecule `CC(C)(C)c1cc(-c2n[nH]c(=S)s2)cc(C(C)(C)C)c1O.C[N+](C)(C)CCO` has a logP [1] of 2.7, an ID40 (Rattus norvegicus [3]) of 1.1 mg/kg and an Activity (Rattus norvegicus [4]) of 0%. The ID40 (Rattus norvegicus [5]) was 7.8 mg/kg.

Work on `CC(C)(C)c1cc(-c2n[nH]c(O)n2)cc(C(C)(C)C)c1O` yielded a logP [1] of 3.1 and an IC50 (Cyclooxygenase) of 5.5 µM.

In the case of `Cc1cc(/C=C/c2cc(C(C)(C)C)c(O)c(C(C)(C)C)c2)on1`, the logP [1] is reported as over 4 and the ID40 (Rattus norvegicus [5]) is reported as 33 mg/kg.

Work on `Cn1c(S)nnc1-c1cc(C(C)(C)C)c(O)c(C(C)(C)C)c1` yielded a logP [1] of 3.7, an IC50 (Cyclooxygenase) of over 32 µM and an IC50 [2] of over 32 µM.

For `CC(C)(C)c1cc(/C=C/c2nnc(O)o2)cc(C(C)(C)C)c1O`, the logP [1] was 3.4, the IC50 (Cyclooxygenase) was over 32 µM and the IC50 [2] was 0.21 µM.

`Cn1c(O)nnc1-c1cc(C(C)(C)C)c(O)c(C(C)(C)C)c1` gave a logP [1] of 3.2.

`CC(C)(C)c1cc(-c2n[nH]c(S)n2)cc(C(C)(C)C)c1O` gave a logP [1] of 2.4, an IC50 (Cyclooxygenase) of 0.78 µM and an IC50 [2] of 11 µM.

Work on `CSc1nnc(-c2cc(C(C)(C)C)c(O)c(C(C)(C)C)c2)s1` yielded a logP [1] of over 4, an IC50 (Cyclooxygenase) of 0.41 µM and an IC50 [2] of 1.2 µM.

In the case of `CC(C)(C)c1cc(/C=C/c2n[nH]c(O)n2)cc(C(C)(C)C)c1O`, the logP [1] is reported as 3.8, the IC50 (Cyclooxygenase) is reported as over 32 µM and the IC50 [2] is reported as 1.6 µM.

With `CC(C)(C)c1cc(/C=C/c2nnc(N)o2)cc(C(C)(C)C)c1O` the IC50 (Cyclooxygenase) was 8 µM and the IC50 [2] was 1.1 µM.

Molecule `CC(C)(C)c1cc(-c2nnc(O)s2)cc(C(C)(C)C)c1O` has a logP [1] of 4, an IC50 (Cyclooxygenase) of over 16 µM and an IC50 [2] of 5.9 µM.

Work on `COc1c(C(C)(C)C)cc(-c2nnc(S)s2)cc1C(C)(C)C` yielded an IC50 (Cyclooxygenase) of 0.35 µM and an IC50 [6] of 0.92 µM.

`CC(C)(C)c1cc(-c2nnc(O)o2)cc(C(C)(C)C)c1O` gave a logP [1] of 3.4 and an IC50 (Cyclooxygenase) of 2.5 µM.

With `Cn1nc(-c2cc(C(C)(C)C)c(O)c(C(C)(C)C)c2)sc1=S` the IC50 (Cyclooxygenase) was 0.65 µM and the IC50 [6] was 5 µM.

With `CC(C)(C)c1cc(/C=C/c2nnc(S)o2)cc(C(C)(C)C)c1O` the logP [1] was 3, the IC50 (Cyclooxygenase) was 9.4 µM and the IC50 [2] was 0.58 µM.

Work on `CC(C)(C)c1cc(-c2nnc(S)n2N)cc(C(C)(C)C)c1O` yielded a logP [1] of 3.3, an IC50 (Cyclooxygenase) of over 32 µM and an IC50 [2] of over 32 µM.

With `CSc1nnc(/C=C/c2cc(C(C)(C)C)c(O)c(C(C)(C)C)c2)s1` the IC50 (Cyclooxygenase) was over 10 µM and the IC50 [2] was over 10 µM.

With `CC(C)(C)c1cc(/C=C/c2n[nH]c(S)n2)cc(C(C)(C)C)c1O` the logP [1] was 3.1, the IC50 (Cyclooxygenase) was 6.7 µM and the IC50 [2] was 2.4 µM.

With `CC(C)(C)c1cc(-c2nnc(S)o2)cc(C(C)(C)C)c1O` the logP [1] was 2.3, the ID40 (Rattus norvegicus [3]) was 3.9 mg/kg and the IC50 (Cyclooxygenase) was 3.7 µM. It also gave an ID40 (Rattus norvegicus [5]) of 59.9 mg/kg and an IC50 [2] of 4.8 µM.

`CC(C)(C)c1cc(-c2nnc(N)s2)cc(C(C)(C)C)c1O` showed a logP [1] of 3.7, an ID40 (Rattus norvegicus [3]) of 1.9 mg/kg and an Activity (Rattus norvegicus [4]) of 10%. The IC50 (Cyclooxygenase) was 0.13 µM and the ID40 (Rattus norvegicus [5]) was 2.3 mg/kg.

In the case of `CC(C)(C)c1cc(/C=C2\CCOC2=O)cc(C(C)(C)C)c1O`, the logP [1] is reported as over 4, the ID40 (Rattus norvegicus [3]) is reported as over 10 mg/kg and the ID40 (Rattus norvegicus [5]) is reported as 3.7 mg/kg. For the same molecule, the UD50 (Rattus norvegicus [7]) was 93.1 mg/kg.

Molecule `CC(C)(C)c1cc(/C=C/c2nnc(S)s2)cc(C(C)(C)C)c1O` has a logP [1] of over 4, an IC50 (Cyclooxygenase) of 5.2 µM and an IC50 [2] of 1.8 µM.

For `CON1CC/C(=C\c2cc(C(C)(C)C)c(O)c(C(C)(C)C)c2)C1=O` [E-5110], the logP [1] was over 4, the ID40 (Rattus norvegicus [3]) was 24.1 mg/kg and the ID40 (Rattus norvegicus [8]) was 1.9 mg/kg. It also gave an Activity (Rattus norvegicus [9]) of 10%.

For `Cc1ccc(Cl)c(Nc2ccccc2C(=O)O)c1Cl` [MECLOFENAMIC ACID], the UD50 (Rattus norvegicus [10]) was 36.2 mg/kg, the ID40 (Rattus norvegicus [3]) was 5.6 mg/kg and the ID40 (Rattus norvegicus [5]) was 0.35 mg/kg.
